According to patent US7312248B2, “Control of parasites in animals by the use of novel trifluoromethanesulfonanilide oxime ether derivatives” (Schering-Plough Animal Health Corporation, priority 2004, dated 2007):
Like-named read-outs stand apart in the source and are kept apart here.

System: cat flea (Ctenocephalides felis)
Test: whole plant or invertebrate
Type: in vivo
Conditions: for mortality at 1.26 µg/cm2 / mortality at 1.26 µg/cm2, 1.26 µg/cm2: Ctenocephalides felis
Procedure: b) Ctenocephalides felis Adulticide Assay: C. felis Single Dose Screen
Mortality of fleas was the primary endpoint in the assay. Fleas were considered dead if they didn't move or were on their sides and unable to walk or right themselves. […] The concentration chosen (1.26 μg/cm^2) was higher than that known to kill 90% of cat fleas (LC90) using the reference compound, permethrin.
The test species was the cat flea (Ctenocephalides felis). The strain used was obtained from external suppliers as pupae and held in the laboratory under testing conditions until the adults had emerged. Fifteen (15) fleas were used in a minimum of four replicates against a single concentration level (approximately 60 fleas). The insects were selected to be in the adult life stage, aged between 3 and 7 days post emergence.
The compounds to be tested were supplied as solids and were prepared in acetone as described below prior to testing. Samples were stored in a refrigerator (5±1° C.) unless otherwise specified.
During the mortality testing, the temperature was maintained at 25±1° C. Humidity was maintained at 75±5%. The base (area=159 mm^2) of a 100 mL glass Erlenmeyer (conical) flask provided the treatment surface. Flasks were pretreated with Coatasil™ glass treatment to maximise bio-availability of test compounds by preventing them from binding to glass the surface. The base of the 100 mL Erlenmeyer flask was treated with 0.5 mL of test sample in acetone and gently swirled. This volume was sufficient to cover the base of the flask. Flasks were left to dry for 24 hours before flea exposure.
Adult cat fleas were placed into a sorting chamber, which allowed fleas to jump into the Erlenmeyer flasks. Fifteen (15) adult cat fleas were collected in each flask. The top of the flasks were then covered in Parafilm™ and small holes were made to allow gas exchange. A 0.5 mL volume of acetone as a solvent control was applied to the base of an Erlenmeyer flask and the testing proceeded in the same manner described above. Cat fleas in the treatment containers were held under testing conditions for 8, 24 and/or 48 hours. Mortality was recorded at 8, 24, 8 and 24, or 24 and 48 hours. Pooled 8, 24, 8 and 24, and 24 and 48 hour mortality data were converted to percentages and are summarized by Tables 14, 14A and 14B, below.

[1] = 8 h, read-out: Ctenocephalides felis Mortality (%) 8 h
[2] = 24 h, read-out: Ctenocephalides felis Mortality (%) 24 h
[3] = 24 h, read-out: C. felis Mortality (%) 24 h, 24 h, Laboratory 1 A data
[4] = 24 h, read-out: C. felis Mortality (%) 24 h, 24 h, Laboratory 2 B data
[5] = 48 h, read-out: C. felis Mortality (%) 48 h, 48 h, Laboratory 2 B data
[6] = 48 h, read-out: Ctenocephalides felis Mortality (%) 48 h

CO/N=C(\c1ccccc1)c1cc(Cl)ccc1NS(=O)(=O)C(F)(F)F [Compound 233]
C. felis Mortality (%) 24 h (24 h, Laboratory 2 B data): 15^B % | C. felis Mortality (%) 48 h (48 h, Laboratory 2 B data): 96%

O=S(=O)(Nc1ccc(Cl)cc1-c1noc2c1CCCC2)C(F)(F)F [Compound 294]
mortality at 1.26 µg/cm2 [1]: 3% | mortality at 1.26 µg/cm2 [2]: 40%

CC/C(=N\Oc1ccc(C(F)(F)F)cc1)c1cc(Cl)ccc1NS(=O)(=O)C(F)(F)F [Compound 145]
mortality at 1.26 µg/cm2, 1.26 µg/cm2 [3]: 9%

CCCc1conc1-c1cc(Cl)ccc1NS(=O)(=O)C(F)(F)F [Compound 295]
mortality at 1.26 µg/cm2 [1]: 0% | mortality at 1.26 µg/cm2 [2]: 44%

CC/C(=N\OC(CC)c1ccccc1)c1cc(Cl)ccc1NS(=O)(=O)C(F)(F)F (stereo not shown) [Compound 256]
mortality at 1.26 µg/cm2, 1.26 µg/cm2 (8 h, read-out: C. felis Mortality (%) 8 h, 8 h, Laboratory 2 B data): 0% | mortality at 1.26 µg/cm2, 1.26 µg/cm2 [4]: 84%

C/C(=N\OCC(C)C)c1ccc(C(F)(F)F)cc1NS(=O)(=O)C(F)(F)F [Compound 240]
mortality at 1.26 µg/cm2, 1.26 µg/cm2 [4]: 64% | mortality at 1.26 µg/cm2, 1.26 µg/cm2 [5]: 98%

CCCC(=O)OCN(c1ccc(Cl)cc1/C(C)=N/Oc1ccc(F)cc1)S(=O)(=O)C(F)(F)F [Compound 312]
mortality at 1.26 µg/cm2 [1]: 11% | mortality at 1.26 µg/cm2 [2]: 89%

CCCO/N=C(\c1ccccc1)c1cc(Cl)ccc1NS(=O)(=O)C(F)(F)F [Compound 251]
C. felis Mortality (%) 24 h (24 h, Laboratory 2 B data): 32^B % | mortality at 1.26 µg/cm2, 1.26 µg/cm2 [5]: 100%

C/C(=N\OCc1ccc(Cl)cc1)c1cc(Cl)ccc1N(C)S(=O)(=O)C(F)(F)F [Compound 296]
mortality at 1.26 µg/cm2 [2]: 0% | mortality at 1.26 µg/cm2 [6]: 19%

CCO/N=C(\CC)c1cc(Cl)ccc1NS(=O)(=O)C(F)(F)F [Compound 37]
mortality at 1.26 µg/cm2, 1.26 µg/cm2 [3]: 29%

C/C(=N\OCCC(C)C)c1cc(Cl)ccc1NS(=O)(=O)C(F)(F)F [Compound 246]
mortality at 1.26 µg/cm2, 1.26 µg/cm2 [4]: 98% | mortality at 1.26 µg/cm2, 1.26 µg/cm2 [5]: 100%

CC/C(=N\OCC1CCCCC1)c1cc(Cl)ccc1N(C(C)=O)S(=O)(=O)C(F)(F)F [Compound 311]
mortality at 1.26 µg/cm2 [1]: 14% | mortality at 1.26 µg/cm2 [2]: 76%

CCOC(=O)N(c1ccc(Cl)cc1/C(CC)=N/OCC1CCCCC1)S(=O)(=O)C(F)(F)F [Compound 313]
mortality at 1.26 µg/cm2 (8 h, single concentration 1.26 μg/cm^2 on treated glass, adult fleas, Laboratory 2 B data, read-out: Ctenocephalides felis Mortality (%) 8 h): 0% | mortality at 1.26 µg/cm2 (24 h, single concentration 1.26 μg/cm^2 on treated glass, adult fleas, Laboratory 2 B data, read-out: Ctenocephalides felis Mortality (%) 24 h): 59%

C/C(=N\OCC#N)c1ccccc1NS(=O)(=O)C(F)(F)F [Compound 27]
mortality at 1.26 µg/cm2, 1.26 µg/cm2 [3]: 95%

CCC/C(=N\Oc1ccc(F)cc1)c1cc(Cl)ccc1NS(=O)(=O)C(F)(F)F [Compound 168]
mortality at 1.26 µg/cm2, 1.26 µg/cm2 [3]: 36%

CO/N=C(\C)c1cc(Br)ccc1NS(=O)(=O)C(F)(F)F [Compound 52]
mortality at 1.26 µg/cm2, 1.26 µg/cm2 [3]: 100%

C/C(=N\Oc1ccc(F)cc1)c1cc(Cl)ccc1N(C)S(=O)(=O)C(F)(F)F [Compound 298]
mortality at 1.26 µg/cm2 [2]: 1% | mortality at 1.26 µg/cm2 [6]: 12%

C/C(=N\OCC=C(Cl)Cl)c1ccccc1NS(=O)(=O)C(F)(F)F [Compound 25]
mortality at 1.26 µg/cm2, 1.26 µg/cm2 [3]: 100%

C/C(=N\OCc1ccccn1)c1cc(Cl)ccc1NS(=O)(=O)C(F)(F)F [Compound 48]
mortality at 1.26 µg/cm2, 1.26 µg/cm2 [3]: 94%

CC/C(=N\OCc1ccc(Cl)cc1)c1cc(Cl)ccc1N(C)S(=O)(=O)C(F)(F)F [Compound 297]
mortality at 1.26 µg/cm2 [2]: 1% | mortality at 1.26 µg/cm2 [6]: 28%

CC/C(=N\OCC=C(C)C)c1cc(Cl)ccc1NS(=O)(=O)C(F)(F)F [Compound 250]
mortality at 1.26 µg/cm2, 1.26 µg/cm2 [4]: 97% | mortality at 1.26 µg/cm2, 1.26 µg/cm2 [5]: 100%

C/C(=N\OC1CCCCC1)c1ccc(C(F)(F)F)cc1NS(=O)(=O)C(F)(F)F [Compound 237]
mortality at 1.26 µg/cm2, 1.26 µg/cm2 [4]: 4% | mortality at 1.26 µg/cm2, 1.26 µg/cm2 [5]: 36%

CCC(CC)O/N=C(\C)c1ccc(C(F)(F)F)cc1NS(=O)(=O)C(F)(F)F [Compound 236]
mortality at 1.26 µg/cm2, 1.26 µg/cm2 [4]: 69% | mortality at 1.26 µg/cm2, 1.26 µg/cm2 [5]: 100%

CO/N=C(\c1ccccc1)c1cc(Cl)ccc1NS(=O)(=O)C(F)(F)F [Compound 232]
C. felis Mortality (%) 24 h (24 h, Laboratory 2 B data): 96^B % | mortality at 1.26 µg/cm2, 1.26 µg/cm2 [5]: 100%

CCCO/N=C(\c1ccccc1)c1cc(Cl)ccc1NS(=O)(=O)C(F)(F)F [Compound 252]
C. felis Mortality (%) 24 h (24 h, Laboratory 2 B data): 15^B % | C. felis Mortality (%) 48 h (48 h, Laboratory 2 B data): 100%
